Measured values: patent US20240182785A1, “COMPOUND, COMPOSITION, CURED PRODUCT, OPTICALLY ANISOTROPIC BODY, OPTICAL ELEMENT, AND LIGHT GUIDE ELEMENT” (FUJIFILM Corporation, priority 2021, published 2024)

Key:
Assay type in all cases: physicochemical
[1] = Evaluation of light resistance of optically anisotropic layer (Super Xenon Weather Meter); details: rate of change in Re of cured layer (25 parts compound, 75 parts L-1), 5 million lx, 50 hours, 63° C., 50% RH, oxygen-blocking
Description: (§1) As shown below, the light resistance and the durability of the optically anisotropic layer produced using the composition containing each of the compounds A-1 to A-11 and the compounds B-1 and B-2 were evaluated.
(§2) A coating liquid having the following composition was prepared and applied by spin-coating, onto a rubbing-treated glass attached with an alignment film. Each composition was irradiated with ultraviolet rays of 300 mJ/cm^2 through a filter that cuts light having a wavelength of 350 nm or less on a hot plate which had been heated to a temperature at which a nematic phase is shown, whereby an optically anisotropic layer for a light resistance/durability test was produced.
(§3) The polymerizable liquid crystal compound L-1 is a mixture obtained by mixing at a
(§4) ratio of the following L-1-1/L-1-2/L-1-3=84/14/2 (in terms of mass ratio).
The produced optically anisotropic layers for light resistance/durability tests were irradiated with light using a Super Xenon Weather Meter SX75 manufactured by Suga Test Instruments Co., Ltd. Using KU-1000100 manufactured by King Seisakusho Co., Ltd. as a UV cut filter, a light resistance test was carried out by irradiation with 5 million lx of light for 50 hours under an oxygen-blocking condition. The temperature of the specimen to be tested (the temperature inside the test device) was set to 63° C. The relative humidity in the test device was 50% RH.
The Re of the optically anisotropic layer before and after the light resistance test was measured, the light resistance in a case where the rate of change in Re described below was less than 10% was evaluated as A, and the light resistance in a case where the rate of change in Re was 10% or more was evaluated as B. The smaller the rate of change in Re, the more excellent the light resistance.
(§5) Rate of change in Re (%)=[100×{|(Re after test)−(Re before test)|}/(Re before test)]
(§6) Re was measured with Axoscan manufactured by Axometrics Inc. at a wavelength of 550 nm, and the measurement temperature was set to room temperature.

[2] = Evaluation of durability of optically anisotropic layer (moisture-heat resistance test); details: rate of change in Re of cured layer (25 parts compound, 75 parts L-1), 136 hours at 100° C., humidity 95%
Description: as §1, §2, §3, §4, §5, §6
The produced optically anisotropic layer was allowed to be left for 136 hours at 100° C. and a humidity of 95%, whereby a moisture-heat resistance test was carried out. The rate of change in Re before and after the durability test was evaluated, the durability in a case where the rate of change in Re was less than 10% was evaluated as A, and the durability in a case where the rate of change in Re was 10% or more was evaluated as B. The smaller the rate of change in Re, the more excellent the durability.

[3] = Evaluation of solubility in cyclopentanone; details: precipitation concentration in cyclopentanone at 25° C.
Description: The solubility of each of the compounds (the compounds A-1 to A-11 and the compounds B-1 and B-2) in cyclopentanone was evaluated.

[4] = Measurement of Δn (refractive index anisotropy), wedge-shaped liquid crystal cell; details: 550 nm, 30° C. or lower limit temperature of nematic phase +0 to 10° C.; some compounds extrapolated from 1/2 mixture with L-1-1
Description: The Δn of each of the compounds (the compounds A-1 to A-11 and the compounds B-1 and B-2), which are the compounds to be measured, was measured by a method using a wedge-shaped liquid crystal cell described on page 202 in the Liquid crystal handbook (edited by the liquid crystal handbook editorial board, published by Maruzen Co., Ltd., 2000). Δn was defined as a measured value at a wavelength of 550 nm at 30° C. or the lower limit temperature of the nematic phase +0° C. to 10° C. In a case of a compound which is liable to crystallize or a compound having no liquid crystallinity, evaluation was carried out using a mixture thereof with the other liquid crystal compound, and Δn was estimated from the extrapolated value of the measured value thereof. The following L-1-1 was used as the other liquid crystal compound. As the above mixture, a mixture obtained by mixing at a ratio of the compound to be measured/the L-1-1=1/2 (in terms of mass ratio) was used.
A case where Δn was 0.40 or more was evaluated as A, a case where Δn was 0.35 or more and less than 0.40 was evaluated as B, a case where Δn was 0.30 or more and less than 0.35 was evaluated as C, and a case where Δn was less than 0.30 was evaluated as D. The results are shown in Table 1.

[5] = Evaluation of liquid crystallinity (hot stage, polarization microscope); design: key: A case of having liquid crystallinity was evaluated as A; a case of having no liquid crystallinity was evaluated as B; details: heated on a hot stage
Description: The respective compounds (the compounds A-1 to A-11 and the compounds B-1 and B-2) were heated on a hot stage and observed with a polarization microscope, and the phase transition temperature was measured to evaluate the presence or absence of the liquid crystallinity. A case of having liquid crystallinity was evaluated as A, and a case of having no liquid crystallinity was evaluated as B. The results are shown in Table 1.
Since the compound A-8 has melting points of 200° C. or higher and undergoes a polymerization reaction during heating, liquid crystallinity could not be evaluated.

- Liquid crystallinity [5]: A
SMILES: COC(=O)c1cc(C#Cc2ccc(CCOC(C)=O)cc2)ccc1OCc1ccc(-c2ccc(C#Cc3ccc(CCOC(C)=O)cc3)cc2)cc1 [Compound A-7]
- Light resistance [1]: A (the light resistance in a case where the rate of change in Re described below was less than 10% was evaluated as A)
- Durability [2]: B (the durability in a case where the rate of change in Re was 10% or more was evaluated as B)
- Solubility [3]: A (the solubility in a case where the precipitation concentration was 5% by mass or more was evaluated as A)
- Δn [4]: B (a case where Δn was 0.35 or more and less than 0.40 was evaluated as B)
